How the values were obtained:
[1] = tested on: CTX-induced immunodeficient mice; assay: Serum hemolysin test in CTX-induced immunodeficient mice; type: in vivo; settings: 17 mg/kg per os; SRBC-immunized; CTX 50 mg/kg i.p.; x±sd, n=10
Method: A total of 70 mice were divided into […] treatment groups: Vehicle; CTX (cyclophosphamide) + Vehicle; CTX+Zinc Sulphate (17mg mg/kg); CTX+Zinc chelate (Zn:[…]:[…]) (57 mg/kg); CTX+Zinc chelate (Zn:[…]:[…]) (114 mg/kg); CTX+Zinc chelate (Zn:[…]:[…]) (228 mg/kg); CTX+Zinc chelate (Zn:[…]:[…]) (456 mg/kg). The mice were administrated per os at least 16 days before experimentation. After 8 days of drug or vehicle administration, all mice were immunized with an intraperitioneal injection of 0.2 ml of 20% SRBC (sheep red blood cell) in saline. CTX was given intraperitoneal injection at the dose of 50 mg/kg every day for 4 days after 9 days of drug administration. Sixty minutes after the last drug administration, blood was collected by retroorbital venous plexus puncture, and then centrifuged (2000 r/min 5 min). Sheep red cell suspension 0.5 ml (5% sheep red cell in saline) was added to 1 ml diluted sera (1:500 dilution with saline), followed by 1 ml diluted guinea pig plasma (10% plasma in saline) in sequence. For negative controls, the durg waqs substituted with saline. The samples and controls were incubated for 10 min at 37°C, and then immersed in an ice-water bath (0°C) to stop the reaction. […] The absorbance for each tube was recorded and the 50% hemolytic dose (HC50) was calculated as follows: Sample HC50 = sample absorbance 50% hemolytic absorbance x dilution factors.

[2] = tested on: CTX-induced immunodeficient mice; assay: Clearance of charcoal particles (carbon clearance test) in CTX-induced immunodeficient mice; type: in vivo; settings: 17 mg/kg per os; CTX 50 mg/kg i.p.; x±sd, n=10
Method: A total of 70 mice were divided into 7 treatment groups: Vehicle; CTX (cyclophosphamide) + Vehicle; CTX+ZnSO4 (17mg mg/kg); CTX+Zinc chelate (Zn:2Asp:2Lys) (57 mg/kg); CTX+Zinc chelate (Zn:2Asp:2Lys) (114 mg/kg); CTX+Zinc chelate (Zn:2Asp:2Lys) (228 mg/kg); and CTX+Zinc chelate (Zn:2Asp:2Lys) (456 mg/kg). The mice were administrated per os at least 16 days before experimentation. CTX was given as an intraperitoneal injection at the dose of 50 mg/kg every day for 4 days after 9 days of drug administration.
Sixty minutes after the last drug administration, mice were injected with 1:3 diluted Indian ink 10 ml/kg. At 1 min (T1) and 11 min (T2), bold 40µl was taken from retroocular venous plexus and resolved in 0.1 % Na2CO3 solution 4 ml. The absorbance (OD) was measured at 600 nm by a 721 spectrophotometer. The clearance rate K and clearance index a were calculated: K = (lgOD1-lgOD2)/T2 -T1 [formula] α = K^(1/3) × W/(liver weight+spleen weight) [formula] (W: weight of mouse)

For Zinc Sulphate, the “HC50 (serum hemolysin)” value [1] was 141.7±29.5 and the “α (clearance index)” value [2] was 4.2988±1.4347.
